In patent US12187709B2 (Genentech, Inc., priority 2021, dated 2025):

Legend:
c-Cbl = c-Cbl (Homo sapiens (Human), UniProt P22681); assay: C-Cbl LCK Ub TR-FRET assay (C-cbl Lck HTRF); format: biochemical
Method: (§1) 6 μL of detection mixture was added to all wells and briefly centrifuged before incubating for 20 min at room temperature. […] IC50 was generated using no LCK as the low control and DMSO as the high control.

Cbl-b = Cbl-b (Homo sapiens (Human), UniProt Q13191); assay: Cbl-b LCK Ub TR-FRET assay (Cbl-b Lck HTRF); format: biochemical; details: for IC50: Cbl-b LCK Ub TR-FRET; for fold-selectivity (Cbl-b over C-cbl): ratio C-cbl Lck HTRF IC50 / Cbl-b Lck HTRF IC50
Method: as §1

Sequence of c-Cbl (P22681 47-435): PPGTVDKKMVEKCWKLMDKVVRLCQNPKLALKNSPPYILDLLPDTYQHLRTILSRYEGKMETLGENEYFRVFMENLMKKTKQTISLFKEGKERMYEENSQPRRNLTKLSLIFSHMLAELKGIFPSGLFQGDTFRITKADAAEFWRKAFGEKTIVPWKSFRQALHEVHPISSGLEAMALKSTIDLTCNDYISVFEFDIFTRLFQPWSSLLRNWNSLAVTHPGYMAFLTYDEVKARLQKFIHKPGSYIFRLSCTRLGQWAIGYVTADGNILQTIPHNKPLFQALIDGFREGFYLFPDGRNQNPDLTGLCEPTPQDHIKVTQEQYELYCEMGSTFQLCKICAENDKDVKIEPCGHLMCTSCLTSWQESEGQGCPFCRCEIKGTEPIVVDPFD
Sequence of Cbl-b (Q13191 40-426): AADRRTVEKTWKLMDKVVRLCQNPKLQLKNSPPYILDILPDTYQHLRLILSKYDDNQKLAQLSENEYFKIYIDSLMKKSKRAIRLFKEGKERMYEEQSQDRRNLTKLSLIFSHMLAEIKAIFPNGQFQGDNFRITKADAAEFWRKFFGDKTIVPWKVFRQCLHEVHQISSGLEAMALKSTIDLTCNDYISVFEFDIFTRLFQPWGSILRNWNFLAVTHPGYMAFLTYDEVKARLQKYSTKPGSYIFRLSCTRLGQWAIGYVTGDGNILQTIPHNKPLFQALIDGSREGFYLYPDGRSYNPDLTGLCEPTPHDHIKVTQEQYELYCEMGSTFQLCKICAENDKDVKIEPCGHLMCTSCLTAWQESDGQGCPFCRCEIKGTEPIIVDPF

| IC50 (c-Cbl) [µM] | IC50 (Cbl-b) [µM] | fold-selectivity (Cbl-b over C-cbl) (Cbl-b) | SMILES |
| --- | --- | --- | --- |
| 0.27 | 0.18 | (1.5x) | CO[C@H](c1cccc(N2Cc3c(cc(CNC4(C)CCC4)cc3C(F)(F)F)C2=O)c1)c1nncn1C (single isomer, unassigned) [Compound 42] |
| 0.56 | 0.47 | (1.2x) | CO[C@@H](c1cccc(N2Cc3c(cc(CNC4(C)CCC4)cc3C(F)(F)F)C2=O)c1)c1nncn1C (single isomer, unassigned) [Compound 43] |
| 10 | 4.2 | (2.4x) | Cn1cnnc1[C@@H](OC1CC1)c1cccc(N2Cc3c(cc(CNC4(C)CCC4)cc3C(F)(F)F)C2=O)c1 (single isomer, unassigned) [Compound 44] |
| 0.41 | 0.29 | (1.4x) | Cn1cnnc1[C@H](OC1CC1)c1cccc(N2Cc3c(cc(CNC4(C)CCC4)cc3C(F)(F)F)C2=O)c1 (single isomer, unassigned) [Compound 45] |
| 20 | ≥ 20 | (1.0x) | Cn1cnnc1[C@@H](OC1CCC1)c1cccc(N2Cc3c(cc(CNC4(C)CCC4)cc3C(F)(F)F)C2=O)c1 (single isomer, unassigned) [Compound 46] |
| 6.7 | 1 | (6.7x) | Cn1cnnc1[C@H](c1cccc(N2Cc3c(cc(CNC4(C)CCC4)cc3C(F)(F)F)C2=O)c1)N1CC(F)(F)C1 (single isomer, unassigned) [Compound 56] |
| 19 | 10 | (1.9x) | Cn1cnnc1[C@@H](c1cccc(N2Cc3c(cc(CNC4(C)CCC4)cc3C(F)(F)F)C2=O)c1)N1CC(F)(F)C1 (single isomer, unassigned) [Compound 57] |
| 0.081 | 0.023 | 3.5x | Cn1cnnc1[C@@]1(c2cccc(N3Cc4c(cc(CNC5(C)CCC5)cc4C(F)(F)F)C3=O)c2)CCC(F)(F)C1 (single isomer, unassigned) [Compound 106] |
| 20 | ≥ 20 | 1.0x | Cc1cnnn1[C@H](c1cccc(N2Cc3c(cc(CNC4(C)CCC4)cc3C(F)(F)F)C2=O)c1)C1COC1 (single isomer, unassigned) [Compound 136] |
| 8.2 | 4.5 | 1.6x | Cn1cnnc1[C@](O)(c1cccc(N2Cc3c(cc(CNC4(C)CCC4)cc3C(F)(F)F)C2=O)c1)C1COC1 (single isomer, unassigned) [Compound 144] |
| 9.2 | 4 | 2.3x | Cn1cnnc1[C@@H](c1cccc(N2Cc3c(cc(CNC4(C)CCC4)cc3C(F)(F)F)C2=O)c1)C1(O)COC1 (single isomer, unassigned) [Compound 146] |
| 7.9 | 3.8 | 2.1x | Cn1cnnc1C(F)(c1cccc(N2Cc3c(cc(CNC4(C)CCC4)cc3C(F)(F)F)C2=O)c1)C1COC1 (single isomer, unassigned) [Compound 151] |
| 20 | ≥ 20 | 1.0x | Cn1cnnc1[C@](O)(c1ccccc1)c1cccc(N2Cc3c(cc(CNC4(C)CCC4)cc3C(F)(F)F)C2=O)c1 (single isomer, unassigned) [Compound 154] |
| 10 | 10 | 2.0x | Cn1cnnc1[C@@](O)(c1ccccc1)c1cccc(N2Cc3c(cc(CNC4(C)CCC4)cc3C(F)(F)F)C2=O)c1 (single isomer, unassigned) [Compound 155] |
| 18 | 7.7 | 2.4x | Cn1cnnc1[C@](F)(c1ccccc1)c1cccc(N2Cc3c(cc(CNC4(C)CCC4)cc3C(F)(F)F)C2=O)c1 (single isomer, unassigned) [Compound 156] |
| 20 | ≥ 20 | 1.0 x | Cn1cnnc1[C@@](F)(c1ccccc1)c1cccc(N2Cc3c(cc(CNC4(C)CCC4)cc3C(F)(F)F)C2=O)c1 (single isomer, unassigned) [Compound 157] |
| 5 | 1.4 | 3.6 x | Cn1cnnc1[C@H](c1ccccc1)c1cccc(N2Cc3c(Cl)cc(CNC4(C)CCC4)cc3C2=O)c1 (single isomer, unassigned) [Compound 158] |
| 20 | ≥ 20 | 1.0x | Cn1cnnc1[C@@H](c1ccccc1)c1cccc(N2Cc3c(Cl)cc(CNC4(C)CCC4)cc3C2=O)c1 (single isomer, unassigned) [Compound 159] |
| 20 | 9.1 | 2.1x | Cn1cnnc1[C@]1(c2cccc(N3Cc4c(cc(CNC5(C)CCC5)cc4C(F)(F)F)C3=O)c2)C[C@H]([S@+](C)[O-])C1 (single isomer, unassigned) [Compound 162] |
| 20 | ≥ 20 | 1.0x | Cn1cnnc1[C@]1(c2cccc(N3Cc4c(cc(CNC5(C)CCC5)cc4C(F)(F)F)C3=O)c2)C[C@@H]([S@@+](C)[O-])C1 (single isomer, unassigned) [Compound 163] |
| 10 | 3.9 | 2.3 x | Cn1cnnc1[C@H](c1cccc(N2Cc3c(cc(CNC4(C)CCC4)cc3C(F)(F)F)C2=O)c1)C1COC1 (single isomer, unassigned) [Compound 165] |
| 0.89 | 0.88 | 1.0x | Cn1cnnc1[C@H](c1cccc(N2Cc3c(cc(CNC4(C)CCC4)cc3C(F)(F)F)C2=O)c1)C1CCCCC1 (single isomer, unassigned) [Compound 251] |
| 13 | 9.1 | 1.4x | Cn1cnnc1[C@H](CC1CCOCC1)c1cccc(N2Cc3c(cc(CNC4(C)CCC4)cc3C(F)(F)F)C2=O)c1 (single isomer, unassigned) [Compound 252] |
| 4.5 | 1.3 | 3.5x | Cn1cnnc1[C@@H](c1cccc(N2Cc3c(cc(CNC4(C)CCC4)cc3C(F)(F)F)C2=O)c1)C1CC(OCC(F)F)C1 (single isomer, unassigned) [Compound 261] |
| ≥ 20 | 5.1 | 3.9x | CCOC1CC([C@H](c2cccc(N3Cc4c(cc(CNC5(C)CCC5)cc4C(F)(F)F)C3=O)c2)c2nncn2C)C1 (single isomer, unassigned) [Compound 264] |
| ≥ 20 | 6.7 | 3.0x | CCOC1CC([C@@H](c2cccc(N3Cc4c(cc(CNC5(C)CCC5)cc4C(F)(F)F)C3=O)c2)c2nncn2C)C1 (single isomer, unassigned) [Compound 266] |
| 4.3 | 1.8 | 2.6x | Cn1cnnc1[C@H](c1cccc(N2Cc3c(Cl)cc(CNC4(C)CCC4)cc3C2=O)c1)C1COC1 (single isomer, unassigned) [Compound 271] |
| 20 | – | 1.0x | Cn1cnnc1[C@@H](C[C@H]1COCCO1)c1cccc(N2Cc3c(cc(CNC4(C)CCC4)cc3C(F)(F)F)C2=O)c1 (single isomer, unassigned) [Compound 295] |
